Test results reported in patent publication US10017515B2, “Stable amorphous ticagrelor and a process for its preparation” (Sun Pharmaceutical Industries Limited, priority 2014, dated 2018).

How the values were obtained:
[1] = Stability on storage, X-ray powder diffraction (XRPD) pattern; format: physicochemical
Protocol: The X-ray powder diffraction (XRPD) pattern was recorded using a PANalytical® X'pert PRO with X'celerator® as the detector.

[2] = Stability on storage, HPLC purity; format: physicochemical; settings: material of Example 6
Protocol: HPLC purity (initial and at stability at a temperature of 25° C.±2° C. at relative humidity of 60% ±5% for 1, 2, 3, and 6 months): 99.8%
HPLC purity (initial and at stability at a temperature of 5° C.±3° C. for 3 and 6 months): 99.9%

[3] = 25° C.±2° C., relative humidity 60% ±5%, for 1, 2, 3, and 6 months

With `CCCSc1nc(N[C@@H]2C[C@H]2c2ccc(F)c(F)c2)c2nnn([C@@H]3C[C@H](OCCO)[C@@H](O)[C@H]3O)c2n1` [amorphous ticagrelor, (1S,2S,3R,5S)-3-[7-{[(1R,2S)-2-(3,4-difluorophenyl)cyclopropyl]amino}-5-(propylthio)-3H-[1,2,3]-triazolo[4,5-d]pyrimidin-3-yl]-5-(2-hydroxyethoxy)cyclopentane-1,2-diol] as the compound, how does the “Change in XRPD pattern on storage” value ([1]; 5° C.±3° C. for 3 and 6 months) read?
Its value is “no change was observed in the XRPD pattern”.

What about the “Change in XRPD pattern on storage” value ([1]; 5° C.±3° C. for 3 and 6 months, listed as stable amorphous ticagrelor) of the same compound?
Its value is “no change in XRPD pattern”.

And the “Change in XRPD pattern on storage” value [1, 3]?
The value was “no change was observed in the XRPD pattern”.

What about the “Change in XRPD pattern on storage” value ([1]; 25° C.±2° C., relative humidity 60% ±5%, for 1, 2, 3, and 6 months, listed as stable amorphous ticagrelor) of the same compound?
The value was “no change in XRPD pattern”.

And the “HPLC purity (initial and at stability)” value ([2]; 5° C.±3° C. for 3 and 6 months)?
Its value is 99.9%.

What about the “HPLC purity (initial and at stability)” value [2, 3] of the same compound?
Its value is 99.8%.
